Numbers after ± are expanded uncertainties.
What was measured:
[1] = Molar enthalpy of transition or fusion; settings: Crystal; DSC
[2] = Crystal; DTA

| Molar enthalpy of transition or fusion [1] | Normal melting temperature [2] | SMILES |
| --- | --- | --- |
| 38.9 ± 1 kcal/mol | 67.4 ± 0.5 °C | CCCCCCCCCCCCCCCC(=O)OCC(COC(=O)CCCCCCCCCCCCCCC)OC(=O)CCCCCCCCCCCCCCC [1,2,3-propanetriyl tri(hexadecanoate)] |
| – | 74.5 ± 0.5 °C | CC(C)Cc1ccc(C(C)C(=O)O)cc1 (stereo not given) [ibuprofen] |
| 10.9 ± 0.287 kcal/mol | 53.1 ± 0.5 °C | CCCCCCCCCCCCCC(=O)O [tetradecanoic acid] |

From the NIST ThermoML archive (doi:10.1021/je900342a)
